{
  "source": "patent US6790824B1",
  "about": "“Cytokines having neurotrophic activity” (Biopharm Gesellschaft zur biotechnologischen Entwicklung …, priority 1997, dated 2004)",
  "assay_type_in_all_cases": "cell-based",
  "key": {"[1]": {"system": "chick sympathetic ganglionic (SG) neurons", "test": "Survival of embryonic chick sympathetic ganglionic (SG) neurons, 72 h, counting of surviving neurons", "conditions": "E8, serum-free, factor added by itself", "method": "(§1) Embryonic chick ciliary (CG), dorsal root (DRG), and sympathetic (SG) ganglia at embryonic day(s) (E) 8, 10, and 12, were dissected, freed from nerve roots and connective tissue and collected in CME. Ganglia were incubated in trypsin (ICN), washed and dissociated by trituration using fire-polished Pasteur pipettes. Cultures were set up in 96-well microtiter plates (Costar, A/2), precoated with poly-L-ornithine and laminin at a density of 1,200-1,500 cells/well in DMEM supplemented with N1 additives, 0.25% BSA, and 0.1% PSN (DME/N1) and incubated at 37° C. in a 5% CO2 incubator.\n(§2) At appropriate times (CG: 24 h, DRG: 48 h, SG: 72 h) cultures were fixed by addition of 2.5% glutardialdehyde in phosphate buffered saline (PBS). Numbers of surviving neurons were determined by direct counting of 30% of the surface area using phase contrast microscopy."}, "[2]": {"system": "embryonic chicken dorsal root ganglia (DRG) neurons", "test": "Survival of dissociated embryonic chick dorsal root ganglia (DRG) neurons, 48 h, counting of surviving neurons", "conditions": "for effect on DRG neuron survival when added together with GDF-5: factor at saturating concentration plus GDF-5 20 ng/ml, E8, 48 h", "method": "Dissociated cultures of embryonic chicken dorsal root ganglia (DRG) were generated as described in details by Krieglstein and Unsicker (Neurochem. Res., 21(7) (1996) 843-850). Briefly, DRGs from white Leghorn chick embryos (day 8) were dissected in Ca^2+-Mg^2+ free Hanks' balanced salt solution. After incubation in 0.08% trypsin for 15 min ganglia were dissociated by trituration. Cells were seeded in polyomithin-laminin coated 96-well microtiter plates (A/2 Costar) at a density of 1,200 cells/well. Growth factors were applied at the time of plating in a final volume of […] Dulbecco's Modified Eagle's Medium supplemented with 0.25% bovine serum albumin, N1 additives and 100 U/ml penicillin. As a positive control, nerve growth factor (NGF) was used at the saturating concentration of 5 ng/ml. After 48 h of incubation at 37° C. in a humidified atmosphere containing 5% CO2, cultures were fixed with 2.5% glutaraldehyde. Neuronal cells were identified by their phase-bright and neurite-bearing morphologies and counted within 30% of the total surface area using phase contrast microscopy. In the first set of experiments we tested the survival promoting effect of several growth factors of the bone morphogenetic protein family.\nas §1, §2\nDissociated cultures of embryonic chicken dorsal root ganglia (DRGs) were generated as described in details by Krieglstein and Unsicker (Dev. Brain. Rees. 93 (1996) 10-17). Briefly, DRGs were dissected in Ca^2+-Mg^2+ free Hank's balanced salt solution (CMF). After incubation in 0.08% trypsin (BioWhittaker) for 15 min, ganglia were dissociated by gentle trituration using fire-polished Pasteur pipettes. Cells in suspension (neuron/non-neuron ratio 1:2) were seeded in polyomithin-laminin coated 96-well microtiter plates (A/2 Costar) at a density of 1,200 cells/well. Growth factors were applied at the time of plating in a final volume of 50 μl Dulbecco's Modified Eagle's Medium supplemented with 0.25% bovine serum albumin, N1 additives (Bottenstein et al., Exp. Cell Res. 125 (1980) 183-190) and 100 U/ml penicillin. As a positive control, nerve growth factor (NGF) was used at the saturating concentration of 10 ng/ml. After 48 h of incubation at 37° C. in a humidified atmosphere containing 5% CO2, cultures were fixed with 2.5% glutaraldehyde in phosphate buffered saline (PBS). Neuronal cells were identified by their phase-bright and neurite-bearing morphologies and counted within 30% of the total surface area using phase contrast microscopy. All experiments were performed in at least triplicate in two independent experiments. Data are presented as mean±SEM. Statistical comparisons were made with student's double t-test, ANOVA and MicrocalOrigin software. Differences were considered statistically significant at *P<0.05, **P<0.01, **P<0.001."}, "[3]": {"system": "chick ciliary ganglionic (CG) neurons", "test": "Survival of embryonic chick ciliary ganglionic (CG) neurons, 24 h, counting of surviving neurons", "conditions": "for relative potency of TGF-β isoforms in the synergism with GDNF: not shown; for CG neuron survival with further addition of TGF-β: TGF-β 2.5 ng/ml, CNTF non-saturating, OSM, LIF, IL-6 at 10 ng/ml; for support of CG neuron survival by the single cytokine: at 10 ng/ml, without TGF-β", "method": "as §1, §2\nPhosphatidylinositol-specific phospholipase C (PIPLC) is an enzyme that specifically cleaves glycosyl-phosphatidylinositol (GPI) linkages. Embryonic chick ciliary ganglionic neurons (E8) were isolated and seeded as described before. Neurons were incubated for 1 h at 37° C. with 1) 100 mU PIPLC or II) 100 mU PIPLC+2 ng/ml TGFβ or III) without enzyme and then growth factors were added. The number of surviving neurons was determined 24 h later."}, "[4]": {"system": "rat embryonic mesencephalic dopaminergic neurons (E14)", "test": "Survival of rat embryonic mesencephalic dopaminergic neurons, count of tyrosine hydroxylase (TH) immunoreactive neurons after 8 days", "conditions": "GDNF 10 ng/ml, TGF-β3 2 ng/ml, 8 days in culture", "method": "FIG. 8 depicts the survival promoting effect of GDNF on rat embryonic mesencephalic dopaminergic neurons (E14) is dependent on the presence of TGF-β. Dissociated cultures were treated with GDNF (10 ng/ml), with GDNF in the presence of anti-TGF-β1, -β2, -β3 (10 μg/ml), with TGF-β3 (2 ng/ml) or without any growth factor added (control) for 8 days in culture. Numbers of dopaminergic neurons were determined by counting the numbers of tyrosine hydroxylase (TH) immunoreactive neurons."}, "[5]": {"system": "dopaminergic neurons in the ventral midbrain (mesencephalic cultures E14/DIV8)", "test": "Survival of TH-immunoreactive neurons in mesencephalic cultures (E14/DIV8) treated with FGF-2", "conditions": "FGF-2 10 ng/ml, 8 days in culture", "method": "FIG. 12 depicts the ffect of neutralizing endogenous TGF-β in mesencephalic neuron cul-tures. Numbers of surviving TH-immunoreactive neurons of mesencephalic cultures (E14/DIV8) after 8 days in culture treated with FGF-2 (10 ng/ml), medium only (control), in presence or absence of neutralizing antibodies to TGF-β1/-β2/-β3 (10 μg/ml). Data are given as mean±SEM (n=3), P-values are ***P<0.001 for increased survival as compared with control cultures and +P<0.05 or +++P<0.001 for decreased survival following antibody treatment.\nFibroblast growth factor (FGF)-2 is known to act as a neurotrophic factor for dopaminergic neurons in the ventral midbrain. […] As TGF-β is known to be a product of astroglial cells, it was tested whether TGF-β-neutralizing antibodies can abolish the neurotrophic effect of FGF-2 on cultured neurons derived from the embryonic midbrain floor."}, "[6]": {"conditions": "PIPLC 0.1 U/ml prior to plating"}},
  "data": [
    {"substance": "TGF-β1: isoform of TGF-β", "values": [
      {"measurement": "SG neuron survival, single factor in serum-free medium", "setting": "[1]", "result": "virtually no survival promoting effect"},
      {"measurement": "DRG neuron survival, single factor in serum-free medium", "setting": "[2]; E8, serum-free, factor added by itself", "result": "virtually no survival promoting effect"},
      {"measurement": "effect on DRG neuron survival when added together with GDF-5", "setting": "[2]", "result": "synergistic or additive effects"},
      {"measurement": "relative potency of TGF-β isoforms in the synergism with GDNF", "setting": "[3]", "result": "equipotent"}
    ]},
    {"substance": "interleukin-6 [IL-6]", "values": [
      {"measurement": "CG neuron survival with further addition of TGF-β", "setting": "[3]", "result": "did not increase the effects of these cytokines beyond background levels"},
      {"measurement": "support of CG neuron survival by the single cytokine", "setting": "[3]", "result": "did not support CG neurons"}
    ]},
    {"substance": "leukemia inhibiting factor [LIF]", "values": [
      {"measurement": "CG neuron survival with further addition of TGF-β", "setting": "[3]", "result": "did not increase the effects of these cytokines beyond background levels"},
      {"measurement": "support of CG neuron survival by the single cytokine", "setting": "[3]", "result": "did not support CG neurons"}
    ]},
    {"substance": "TGF-β3: isoform of TGF-β", "values": [
      {"measurement": "effect on DRG neuron survival when added together with GDF-5", "setting": "[2]", "result": "synergistic or additive effects"},
      {"measurement": "relative potency of TGF-β isoforms in the synergism with GDNF", "setting": "[3]", "result": "equipotent"}
    ]},
    {"substance": "TGF-β2: isoform of TGF-β", "values": [
      {"measurement": "relative potency of TGF-β isoforms in the synergism with GDNF", "setting": "[3]", "result": "equipotent"}
    ]},
    {"substance": "transforming growth factor-a [TGF-α]", "values": [
      {"measurement": "effect on DRG neuron survival when added together with GDF-5", "setting": "[2]", "result": "synergistic or additive effects"}
    ]},
    {"substance": "transforming growth factor beta [TGF-β]", "values": [
      {"measurement": "survival of dopaminergic neurons relative to untreated control cultures", "setting": "[4]", "result": 200, "unit": "%"},
      {"measurement": "EC50 of the synergistic survival effect", "setting": "[3]; factor titrated in combination with 2 ng/ml of the other factor (GDNF/TGF-β), serum-free", "result": 0.06, "unit": "ng/mL"},
      {"measurement": "CG neuron survival, single factor in fully-defined medium", "setting": "[3]; serum-free, each at the saturating amount of 2 ng/ml", "result": "only marginal survival promoting effects"}
    ]},
    {"substance": "fibroblast growth factor-2 [FGF-2]", "values": [
      {"measurement": "increase in survival of the cells compared to the negative control (medium alone)", "setting": "[5]", "result": 1.7, "unit": "fold"},
      {"measurement": "effect on DRG neuron survival when added together with GDF-5", "setting": "[2]", "result": "synergistic or additive effects"}
    ]},
    {"substance": "Phosphatidylinositol-specific phospholipase C [PIPLC, reference compound]", "values": [
      {"measurement": "effect of PIPLC pretreatment on the survival promoting effect of CNTF", "setting": "[3]; [6]", "result": "effectively reduced the survival promoting effect of CNTF"},
      {"measurement": "effect of PIPLC pretreatment on the survival promoting effect of FGF-2", "setting": "[3]; [6]", "result": "without affecting the survival promoting effect of FGF-2"},
      {"measurement": "effect of PIPLC pretreatment on the survival promoting effect of GDNF with TGF-β", "setting": "[3]; [6]", "result": "significantly reduced the survival promoting effect of GDNF in its combination with TGF-β"},
      {"measurement": "effect of PIPLC pretreatment in the presence of TGF-β on the survival promoting effect of GDNF", "setting": "[3]; PIPLC pretreatment with 2 ng/ml TGF-β1", "result": "the survival promoting effect of GDNF was maintained"}
    ]},
    {"substance": "epidermal growth factor [EGF]", "values": [
      {"measurement": "effect on DRG neuron survival when added together with GDF-5", "setting": "[2]", "result": "synergistic or additive effects"}
    ]}
  ]
}
